The source of these data is patent publication US5593835A, “Methods and kits for RNA binding compounds” (President and Fellows of Harvard College, priority 1995, dated 1997).

Assay [1] concerns RNA pool transcribed from DNA after the sixth selection, bound to tobramycin affinity column. Briefly: Elution of bound RNA from tobramycin affinity column. Format: binding. To be noted: 3 column volumes of 10 mM tobramycin. From the text:
Elution patterns of the RNA from the columns are shown in FIG. 4 for the second and sixth selections. Over 6 cycles of selection, the percentages of RNA specifically eluted with tobramycin were <0.1%, 3.0%, 2.9%, 26%, 55%, and 82%. […] The RNA pool transcribed from DNA after the sixth selection could not be eluted from the affinity column, even after 100 column volumes of selection buffer.
An N-hydroxysuccinimide Affi-Gel affinity column (Bio-Rad, Hercules, Calif.) was derivatized with either 20 μmoles or 0.075 μmoles tobramycin per ml of gel to generate the affinity columns. Excess N-hydroxysuccinimide linkages were blocked by adding 1M ethanolamine. The resulting column served as the support for the RNA selections. The tobramycin concentration on column was estimated as about 15 mM. Selections were performed in 1 ml column volumes in a buffer (selection buffer) containing 140 mM NaCl, 5 mM KCl, 1 mM CaCl2, 1 mM MgCl2, and 20 mM Tris acetate, pH 7.4 (Bock et al. (1992) Nature 355: 564-566). A 1 ml Affi-Gel 10 pre-column treated with ethanolamine was used in all selections.
The original double stranded DNA pool was constructed by large scale PCR amplification of the synthesized 109mer random DNA pool (Oligos, Etc., Inc., Wilsonville, Oreg.) containing 60 random nucleotides. […]

Assay [2] deals with random selected RNA pool (low stringency tobramycin column). Kind of assay: Fluorescence assay, average binding of the random selected RNA pool. The note with it: overall selected pool mixture. As to the method:
To determine whether the W13 RNA clone is representative of the average binding capacity of the random selected RNA pool, the average KD values for the random selected pool were measured. […] Therefore, the W13 RNA is representative of the average binding capacity of the random selected pool.
(§1) Steady state fluorescence measurements were performed on a double beam fluorescence spectrometer (Perkin-Elmer Model 512, Norwalk, Conn.). The excitation wavelength was 341 nm. All measurements were done at 20° C. in 140 mM NaCl, 5 mM KCl, 1 mM CaCl2, 1 mM MgCl2, and 20 mM HEPES, pH 7.4. The KD of the PYT and the RNA aptamer was calculated by the curve fitting of the fluorescence intensity as a function of RNA concentration, using the following equation
(§2) Competition binding measurements of antibiotics with RNA and PYT were performed at constant concentrations of PYT and RNA by monitoring fluorescence intensity changes as a function of changing concentrations of the antibiotics (a standard fluorescence curve). The KD s for the antibiotics were calculated by the curve fitting of the fluorescence intensity of PYT as a function of antibiotic concentration, using the following equation: […]

The target in assay [3] is X1s1 RNA (SEQ ID NO: 3), synthetically derived from the predicted structures. Briefly: Fluorescence binding measurements, X1s1 RNA. The protocol: (§3) The binding of tobramycin to two cloned RNAs X1 (SEQ ID NO:2) and J6 (SEQ ID NO:5), representative of both classes of consensus sequences, was measured using the fluorescence techniques described in the exemplification.
*synthetically derived from the predicted structures
as §1, §2

Assay [4] has as its target J6 RNA (SEQ ID NO:5). Kind of assay: Fluorescence binding measurements, J6 RNA. The protocol: as §3, §1, §2
Assay [5] addresses X1 RNA (SEQ ID NO: 3 in Table 3; SEQ ID NO:2 in text). Kind of assay: Fluorescence binding measurements, X1 RNA. The protocol: as §3, §1, §2
Where [6] appears, read: K1 - high affinity, read-out: Dissociation Constants K1(TOB).
Where [7] appears, read: K2 - low affinity, read-out: Dissociation Constants K2(TOB).

Like-named read-outs stand apart in the source and are kept apart here.

As for `NC[C@H]1O[C@H](O[C@H]2[C@H](O)[C@@H](O[C@H]3O[C@H](CO)[C@@H](O)[C@H](N)[C@H]3O)[C@H](N)C[C@@H]2N)[C@H](N)C[C@@H]1O` [tobramycin], the “RNA eluted from tobramycin affinity column” value in assay [1] came to 96%. Also, the Kd was 8.8 ± 0.3 µM in assay [2]; 0.012 ± 0.005 µM in assay [3] (setting [6]); 13.2 ± 0.5 µM in assay [3] (setting [7]); 0.002 ± 0.001 µM in assay [4] (setting [6]); 6 ± 0.4 µM in assay [4] (setting [7]); 0.003 ± 0.001 µM in assay [5] (setting [6]). Also, in assay [5] (setting [7]), the Kd stood at 15.9 ± 0.7 µM.
